From US6596500B1, “Binding of retinoids to M6P/IGF-II receptor” (The General Hospital Corporation, priority 1998, dated 2003)
Entries after “also recorded” stand apart in the source; their conditions may differ.

Tests used:
neonatal rat fibroblasts = test: Immunofluorescence of cathepsin B distribution in fibroblasts; assay type: cell-based; details: RA 1 μM for 3 h; neonatal rat fibroblasts
Text: FIGS. 8A and 8B are photomicrographs showing effect of retinoic acid on the distribution of cathepsin B in neonatal rat fibroblasts. […] The enzyme was found mainly in the perinuclear area. […] Bar represents 4 μm.
Since biosynthetic transport of lysosomal enzymes from the TGN to endosomes/lysosomes is mainly mediated by the M6P/IGF2R (Sohar et al., 1998, Biochem. J. 330:903-908), an enhanced trafficking of the receptor should lead to an increased translocation of the M6P-containing lysosomal enzymes from the TGN to lysosomes. To test this, we examined the effect of RA on the intracellular distribution of cathepsin B, a lysosomal protease known to be transported in a M6P-dependent manner in fibroblasts (Hanewinkel et al., 1987, J. Diol. Chem. 262:12351-12355). […] The distribution was similar to that of M6P/IGF2R (shift from perinuclear area to cytoplasmic vesicles throughout the cytoplasm).
Intracellular Trafficking Materials Retinoic acid was obtained from Sigma Chem. Co. (St. Louis, Mo.). The synthetic retinoids used (AGN193109, TTNPB) were produced by Allergan Inc. (Irvine, Calif.). Stably-transfected P388D1 cells re-expressing the M6P/IGF2R were provided by Dr. William S. Sly (St. Louis University). The rabbit polyclonal antibody against the rat M6P/IGF-II receptor was a gift from Dr. R.G. MacDonald (University of Nebraska). […]

M6P/IGF-II receptor = molecular target: T1, M6P/IGF-II receptor (Rattus norvegicus, UniProt G3V824); test: Endocytosis of exogenous β-glucuronidase in cultured cardiac myocytes; assay type: cell-based
T1 construct: cultured neonatal rat cardiac myocytes, which were known to express high levels of the M6P/IGF-II receptor; endogenous in cells; host or cells: primary neonatal rat cardiac myocytes
Method: FIG. 4 is a histogram summarizing data on the effect of RA on the endocytosis of exogenous β-glucuronidase. Myocytes were incubated for 2 h at 37°0 C. with 1 ml of MEM containing 10,000 units of human β-glucuronidase, and with or without 5 mM mannose 6-phosphate, in the presence or absence of 2 μM RA. Following the incubation, the internalized human β-glucuronidase was determined as described in the Methods.
The primary functions of the Man-6-P/IGF-II receptor are to mediate endocytosis of extracellular M6P-containing proteins (e.g. lysosomal enzymes) and IGF-II and to sort newly synthesized lysosomal enzymes. Therefore, an important question raised by the direct interaction of RA with M6P/IGF2R is whether RA influences these functions of the receptor. To answer this question, we examined the effect of RA on endocytosis of exogenous β-glucuronidase and ^125I-IGF-II and intracellular activity of acid phosphatase in cultured neonatal rat cardiac myocytes, which were known to express high levels of the M6P/IGF-II receptor (Nissley et al., 1993, Mol. Reprod. Dev. 35:408-413). […] This indicated an increased sorting of lysosomal enzymes) (FIGS. 4-6). […]
Endocytosis of extracellular β-glucuronidase was determined as described by Kyle et al., 1988, J. Biol. Chem. 263:16230-16235. […]

P388D1 cells = test: RA effects on endocytosis, IGF-II internalization and acid phosphatase in receptor-negative cells; assay type: cell-based, mouse
Text: The primary functions of the Man-6-P/IGF-II receptor are to mediate endocytosis of extracellular M6P-containing proteins (e.g. lysosomal enzymes) and IGF-II and to sort newly synthesized lysosomal enzymes. Therefore, an important question raised by the direct interaction of RA with M6P/IGF2R is whether RA influences these functions of the receptor. To answer this question, we examined the effect of RA on endocytosis of exogenous β-glucuronidase and ^125I-IGF-II and intracellular activity of acid phosphatase in cultured neonatal rat cardiac myocytes, which were known to express high levels of the M6P/IGF-II receptor (Nissley et al., 1993, Mol. Reprod. Dev. 35:408-413). […] This indicated an increased sorting of lysosomal enzymes) (FIGS. 4-6). […] These effects of RA were not altered in the presence of a protein synthesis inhibitor (0.5 mM cycloheximide) and were not observed in the receptor-negative P388D1 cells. This indicated a direct interaction of RA with the M6P/IGF2R protein.

T1 sequence (G3V824 36-2481): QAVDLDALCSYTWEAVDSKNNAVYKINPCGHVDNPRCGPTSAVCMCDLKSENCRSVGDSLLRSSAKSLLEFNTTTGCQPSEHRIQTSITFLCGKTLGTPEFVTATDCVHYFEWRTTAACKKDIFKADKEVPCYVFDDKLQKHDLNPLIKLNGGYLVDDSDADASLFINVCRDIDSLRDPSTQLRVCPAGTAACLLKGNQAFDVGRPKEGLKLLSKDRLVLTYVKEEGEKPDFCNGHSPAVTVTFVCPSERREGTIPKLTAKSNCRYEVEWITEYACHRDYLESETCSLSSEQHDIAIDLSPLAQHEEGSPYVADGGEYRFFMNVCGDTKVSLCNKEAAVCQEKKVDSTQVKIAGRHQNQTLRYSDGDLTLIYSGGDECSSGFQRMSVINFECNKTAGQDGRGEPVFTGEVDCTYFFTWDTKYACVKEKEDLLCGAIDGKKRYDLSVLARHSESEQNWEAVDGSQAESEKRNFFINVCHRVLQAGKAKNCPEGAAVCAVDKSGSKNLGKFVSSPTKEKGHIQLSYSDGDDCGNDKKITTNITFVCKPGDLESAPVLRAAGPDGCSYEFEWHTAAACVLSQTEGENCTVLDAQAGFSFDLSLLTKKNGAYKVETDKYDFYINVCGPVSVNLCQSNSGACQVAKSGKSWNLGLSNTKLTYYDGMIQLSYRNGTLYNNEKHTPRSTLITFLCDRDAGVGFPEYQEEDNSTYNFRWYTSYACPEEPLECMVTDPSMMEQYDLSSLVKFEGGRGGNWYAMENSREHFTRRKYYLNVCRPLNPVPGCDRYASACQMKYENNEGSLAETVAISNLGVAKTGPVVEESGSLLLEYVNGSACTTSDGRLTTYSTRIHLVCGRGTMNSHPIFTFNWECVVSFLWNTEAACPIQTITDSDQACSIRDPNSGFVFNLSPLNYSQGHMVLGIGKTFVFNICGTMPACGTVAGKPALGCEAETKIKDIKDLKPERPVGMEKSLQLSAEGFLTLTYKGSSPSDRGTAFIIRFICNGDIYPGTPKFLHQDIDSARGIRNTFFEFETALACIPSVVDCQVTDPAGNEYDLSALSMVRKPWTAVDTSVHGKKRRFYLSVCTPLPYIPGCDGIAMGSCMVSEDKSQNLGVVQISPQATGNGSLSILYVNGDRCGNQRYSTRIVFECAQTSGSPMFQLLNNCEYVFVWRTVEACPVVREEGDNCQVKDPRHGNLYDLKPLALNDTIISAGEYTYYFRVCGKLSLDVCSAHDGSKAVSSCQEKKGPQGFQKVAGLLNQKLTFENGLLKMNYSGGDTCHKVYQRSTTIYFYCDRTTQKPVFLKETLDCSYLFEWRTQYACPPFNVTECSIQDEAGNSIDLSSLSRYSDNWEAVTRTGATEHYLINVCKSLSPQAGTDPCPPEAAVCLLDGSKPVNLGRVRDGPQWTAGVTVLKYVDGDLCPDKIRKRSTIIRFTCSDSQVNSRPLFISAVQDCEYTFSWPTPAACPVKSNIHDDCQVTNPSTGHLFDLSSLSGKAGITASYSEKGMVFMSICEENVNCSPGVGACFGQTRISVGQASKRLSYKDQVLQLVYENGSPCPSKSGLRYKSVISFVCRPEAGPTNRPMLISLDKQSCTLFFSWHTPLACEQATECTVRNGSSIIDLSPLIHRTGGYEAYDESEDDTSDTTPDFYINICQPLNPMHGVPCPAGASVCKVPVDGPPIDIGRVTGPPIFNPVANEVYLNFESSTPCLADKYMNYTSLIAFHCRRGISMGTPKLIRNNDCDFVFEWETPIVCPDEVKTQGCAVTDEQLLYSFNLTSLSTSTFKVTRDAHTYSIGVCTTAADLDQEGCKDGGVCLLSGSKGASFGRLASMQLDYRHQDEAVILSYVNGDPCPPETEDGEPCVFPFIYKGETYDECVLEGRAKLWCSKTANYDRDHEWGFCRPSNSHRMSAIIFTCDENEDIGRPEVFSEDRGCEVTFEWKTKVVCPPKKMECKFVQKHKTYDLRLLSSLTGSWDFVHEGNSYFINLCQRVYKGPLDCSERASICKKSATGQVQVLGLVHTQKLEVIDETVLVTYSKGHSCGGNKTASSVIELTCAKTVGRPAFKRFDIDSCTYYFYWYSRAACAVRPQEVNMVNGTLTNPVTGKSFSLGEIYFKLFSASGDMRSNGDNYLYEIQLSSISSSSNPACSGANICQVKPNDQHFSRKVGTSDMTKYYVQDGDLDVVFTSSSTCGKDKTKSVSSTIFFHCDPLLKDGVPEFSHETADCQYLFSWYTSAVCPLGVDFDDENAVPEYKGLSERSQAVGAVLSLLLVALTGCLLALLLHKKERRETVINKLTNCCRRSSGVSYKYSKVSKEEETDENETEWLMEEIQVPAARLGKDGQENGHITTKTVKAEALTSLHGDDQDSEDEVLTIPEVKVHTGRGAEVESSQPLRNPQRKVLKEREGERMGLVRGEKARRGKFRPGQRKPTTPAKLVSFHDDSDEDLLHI

Effects of RA on endocytosis, IGF-II internalization and acid phosphatase with protein synthesis inhibitor (M6P/IGF-II receptor; RA 2 μM plus 0.5 mM cycloheximide): not altered
M6P-inhibitable endocytosis of β-glucuronidase (M6P/IGF-II receptor; RA 2 μM, 2 h at 37° C.): almost doubled
SMILES: CC1=C(/C=C/C(C)=C/C=C/C(C)=C/C(=O)O)C(C)(C)CCC1 [RA, all-trans-retinoic acid]
Intracellular distribution of cathepsin B (neonatal rat fibroblasts): translocated from the perinuclear area to the cytoplasmic vesicles; also recorded: remarkable change in cathepsin B distribution
Effects of RA on endocytosis, IGF-II internalization and acid phosphatase in receptor-negative cells (P388D1 cells): not observed
